Measurements published in patent US20180071280A1, “MODULATORS OF CELL DEATH PROCESSES” (URIFER LTD., priority 2015, published 2018).
Entries after “also recorded” stand apart in the source; their conditions may differ. Structures can show the parent of a compound that is named as a salt.

How the values were obtained:
[1] = target: CAMK1 (Calcium/calmodulin-dependent protein kinase type 1) (Homo sapiens, UniProt Q14012); assay: Kinase panel assay, CAMK1; format: biochemical; details: above threshold
Sequence of CAMK1 (Calcium/calmodulin-dependent protein kinase type 1) (Q14012 whole entry): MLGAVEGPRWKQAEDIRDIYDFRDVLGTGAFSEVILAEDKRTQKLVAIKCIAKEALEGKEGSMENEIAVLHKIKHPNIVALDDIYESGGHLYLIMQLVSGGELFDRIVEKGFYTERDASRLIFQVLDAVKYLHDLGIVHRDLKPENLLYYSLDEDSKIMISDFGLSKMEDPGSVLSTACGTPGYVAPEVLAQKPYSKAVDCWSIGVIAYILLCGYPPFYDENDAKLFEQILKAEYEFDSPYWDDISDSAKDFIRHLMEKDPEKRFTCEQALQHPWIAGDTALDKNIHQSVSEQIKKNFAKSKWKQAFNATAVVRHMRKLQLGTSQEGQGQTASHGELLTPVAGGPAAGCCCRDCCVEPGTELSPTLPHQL
Method: (§1) Kinase panel assays were performed using the FRET-based Z′-LYTE, Lantha Screen and Adapta enzymatic kinase assay systems (Life Technologies, Carlsbad, Calif.), which were carried out using the SelectScreen Kinase Profiling Service (Life Technologies). The standard reaction contained 2 μM peptide substrate, ATP at the optimal assay concentration, 50 mM HEPES (pH 7.5), 0.01% Brij-35, 10 mM MgCl2, 1 mM EGTA, and the tested kinase. Each kinase was checked for its activity in duplicate data points (n=2) and was assayed following the detailed procedures outlined in the SelectScreen service. Percent inhibition or ATP displacement (For Lantha screen) represent a ratio of phosphorylated/ATP bound product formed in the presence of the compound compared with phosphorylated/ATP bound product formed in reactions containing 1% DMSO.
(§2) Kinome technique was used for monitoring phosphorylation events and phosphorylation targets of 0260-Fer interaction, using peptide arrays for human targets and phosphorylation-specific antibodies. Construction of peptide arrays relied on information from phosphorylation databases. The following proteins were determined as significant above the threshold of 40% kinase activity inhibition or ATP displacement to the Kinase domain site.

[2] = system: Hfb cells; assay: Glycolysis rate (secreted lactate) in Hfb cells; format: cell-based, human; details: low or high glucose
Method: Cells were grown in MEM containing 1 gr/lit glucose or in DMEM with 4.5 gr/lit glucose. Secreted lactate levels were determined using Lactate Colorimetric Assay Kit II according to the manufacturer's protocol (Biovision, USA).

[3] = system: SW620 cells; assay: TUNEL assay in SW620 cells; format: cell-based, human; details: 12 h
Method: Samples of 1×10^6 cells were inoculated into a 6 well plate containing a cover slip, and fixed for 30 min with 4% paraformaldehyde following adhesion. The cells were then subjected to TUNEL analysis according to manufacturer's instructions (Roche, USA).

[4] = system: AMPK-mTOR signaling pathway; assay: WB of AMPK-mTOR signaling pathway phosphorylation in CC cells; format: cell-based, human
Method: (§3) WB analyses were carried out as previously described before. In brief, cells were lysed in RIPA buffer mixed with protease inhibitors and separated on SDS-PAGE gel, transferred to PVDF membrane treated with 5% skim milk to exclude non-specific background and incubated with a primary antibody over-night. The membrane was incubated for 1 h with a secondary antibody conjugated to Horseradish Peroxidase (HRP). The protein-antibody complex was visualized using the SuperSignal West Pico Chemiluminescent Substrate (Thermo scientific, USA).

[5] = system: Hfb; assay: Cellular ATP level (HPLC) in Hfb; format: cell-based, human; details: 12 hours
Method: (§4) Quantification of intracellular ATP was carried out using HPLC as previously described.
(§5) Cells were suspended in 400 μl cold 0.4M perchloric acid solution, incubated on ice for 15 min, centrifuged at 12,000×g, neutralized with 4M K2CO3 to pH 7.5, incubated for 15 min on ice and concentrated (10,000×g). Chromatographic analyses were performed using Hitachi Elite LaChrom system at 30° C. applying supernatants to SUPELCOSIL™ LC-18-S HPLC Column (5 μm particle size, L×I.D. 25 cm×2.1 mm), flow rate 0.2 mL/min under isocratic elution conditions (50 mM potassium phosphate, 100 mM triethylamine, pH 6.5 (adjusted with phosphoric acid)):Acetonitrile (98.5:1.5)). Each analysis cycle was set to 30 min, chromatographic flow was monitored at 260 nm and integrated using EZChrom Elite Software.

[6] = target: MAPK8 (JNK1) (Homo sapiens, UniProt P45983); assay: Kinase panel assay, MAPK8; format: biochemical; details: above threshold
Sequence of MAPK8 (JNK1) (P45983 whole entry): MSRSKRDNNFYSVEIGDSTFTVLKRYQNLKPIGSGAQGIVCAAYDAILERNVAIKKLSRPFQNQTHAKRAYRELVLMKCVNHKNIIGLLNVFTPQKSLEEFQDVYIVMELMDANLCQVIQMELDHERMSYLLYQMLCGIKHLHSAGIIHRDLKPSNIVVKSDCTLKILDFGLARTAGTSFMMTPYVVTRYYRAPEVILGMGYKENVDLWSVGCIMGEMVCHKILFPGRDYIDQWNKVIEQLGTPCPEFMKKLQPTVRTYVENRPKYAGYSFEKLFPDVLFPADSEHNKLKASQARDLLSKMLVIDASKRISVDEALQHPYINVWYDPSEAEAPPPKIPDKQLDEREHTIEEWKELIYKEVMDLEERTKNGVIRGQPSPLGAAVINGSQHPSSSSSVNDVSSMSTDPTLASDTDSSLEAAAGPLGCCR
Method: as §1, §2

[7] = system: PARP-1; assay: PARP-1 poly-ADP-ribosylation activity in CC cells (WB); format: cell-based, human; details: CC cells
Method: as §3

[8] = system: pancreatic cancer cells (PANC-1); assay: MultiTox-Fluor cytotoxicity assay in PANC-1 cells; format: cell-based, human; details: PANC-1, 24-72 h
Method: Cell lines (HCT116, ht29, Rko, Hep3B, SW48, SW620, MDA-MB-231, PANC-1, su.86.86, Hfb) were obtained from the American Type Culture Collection (ATCC). Cell type authentication was carried out by microscope and DNA profiles using short tandem repeat analysis. Cells were grown in Minimum Essential Medium (MEM) containing 10% heat-inactivated Fetal Bovine Serum (FBS) or in Dulbecco's Modified Eagle's Medium (DMEM) containing 10% FBS, where specified, at 37° C. with 5% CO2. In general, the in-vitro experiments were carried out with 2. μM 0260 added into the growth medium. Dose response experiments included increasing 0260 concentrations. Cell death levels were determined using the MultiTox-Fluor Multiplex Cytotoxicity Assay (G9201, Promega, USA). In brief, 10,000 cells were seeded in black bottom 96 wells plate and were allowed to attach to the plate bottom for 16 h before the administration of various 0260 concentration in each well. Cell death levels were determined according to the manufacturer's protocol.
Cells death level was determined using the MultiTox-Fluor Multiplex Cytotoxicity Assay (G9201, Promega, USA) according to the manufacturer's protocol.

[9] = system: malignant cells (CC and MDA cells); assay: Cellular ATP level (HPLC) in malignant cells; format: cell-based, human; details: CC cells, high glucose
Method: as §4, §5

[10] = system: CC cells; assay: Apoptotic markers in treated CC cells (WB, ICC); format: cell-based, human
Method: as §3
Cells were fixed with 4% paraformaldehyde (30 min) and incubated with Permeabilization Solution containing 0.1% Triton X-100 (Sigma-Aldrich, Israel) in PBS at room temperature for 1 h. Nonspecific binding was blocked with PBS containing 10% fetal bovine serum for 1 h at room temperature. Cells were incubated with specific antibodies diluted 1:100 overnight at 4° C. […] Bound primary antibodies were detected by Alexa Fluor® 488 goat anti-mouse IgG antibody or Alexa Fluor® 594 goat anti-rabbit IgG antibody (Molecular Probes, Invitrogen, U.K.). […] Nonspecific staining, as determined by binding to the secondary antibody only, was negligible. The immunostained slides were examined under the fluorescence microscope AxioimagerZ1 (Zeiss, Germany) or confocal fluorescence microscope (Olympus-FV1000).

SMILES: CC(C)c1ccc(-c2cn3nc(N4CCC(CN5CCN(C)CC5)CC4)sc3n2)cc1 [compound 0260, tartarate salt of 6-(4-isopropyl-phenyl)-2-{4-[(4-methyl-piperazin-1-yl)methyl]piperidin-1-yl}-imidazo [2,1-b][1,3,4]thiadiazole]
- kinase activity inhibition or ATP displacement [1]: > 40%
- elevation in the glycolytic rate [2]: not observed
- DNA integrity (TUNEL) [3]: did not reveal any effect
- AMPK phosphorylation [4]: phosphorylated and activated
- Akt phosphorylation [4]: decrease in the activating phosphorylation
- Raptor phosphorylation on serines 792 and 722 [4]: inhibitory phosphorylation
- mTOR phosphorylation state [4]: not changed
- effect on cellular ATP level [5]: not seen
- kinase activity inhibition or ATP displacement [6]: > 40%
- poly-ADPr / PARP-1 poly-ADP-ribosylation activity [7]: induction of poly-ADPr; also recorded: significant increase
- concentration efficient in inducing cell death [8]: ≤ 1.5 µM
- effect on ATP levels under high glucose medium [9]: reducing its effect on ATP levels
- apoptotic markers (cleaved caspase 3, cleaved PARP-1, AIF translocation) [10]: not observed
